Measured values from patent publication US20230172984A1, “CLEARANCE OF SENESCENT CELLS BY ACTIVATION OF iNKT CELLS” (THE REGENTS OF THE UNIVERSITY OF CALIFORNIA, priority 2020, published 2023).

Columns and labels:
[1] = Metabolic measurements in HFD-fed mice (fasting glucose, GTT, HOMA-IR); assay type: in vivo, mouse; details: 10 days after α-GalCer injection
Method: α-GalCer activation of iNKT cells. iNKT cells were activated in vivo using α-GalCer as described in Peralbo et al., 2006. Decreased frequency and proliferative response of invariant Vα24Vβ11 natural killer T (iNKT) cells in healthy elderly. Biogerontology 7, 483-492. Briefly, HFD mice were i.p. injected with 200 μl of a 10 μg/ml α-GalCer solution (2 μg total) made up in 5.6% Sucrose, 5% Tween-20. On day 3 or 4 post-injection, mice were euthanized for various experiments, as indicated.
Metabolic measurements. Seventeen male HFD-fed C57BL6J mice were divided into the vehicle (n=8) and the α-GalCer treated group (n=9). Age-matched male C57BL6/J mice on a standard rodent chow diet were used as controls (n=8). A glucose tolerance test was performed 10 days after α-GalCer injection. Mice were fasted overnight (14 h) before being injecting 2 g/kg glucose intraperitoneally. Blood glucose was measured at 0, 15, 30, 60, and 120 min after glucose injection using a glucometer.

[2] = system: Cdkn2a^Ink4a, Ccl2, Serpine1 mRNA; assay: Bleomycin-induced lung injury model, qRT-PCR of senescence and SASP markers in CD45-depleted lung cells; assay type: in vivo, mouse; details: bleomycin-injured mice, GalCer day 10, harvest day 14; FIG. 4B
Method: MATERIALS AND METHODS. Mouse husbandry. All procedures involving mice were performed according to the IACUC standards following ethics approval by the animal committee at the University of California, San Francisco. Male C57BL6/J on chow or HFD fed mice. HFD mice were fed a high-fat diet (60% kcal from fat) from 6 weeks until 22 weeks of age. All experiments on HFD mice were performed at 22-24 weeks total age (16-18 weeks on HFD). Age-matched male C57BL6/J mice on standard rodent chow diet were used as controls. For the lung injury model, 10-week-old male C57BL/6J mice were used. The animals were divided into three groups: the control group, the injured group, and the α-GalCer treated group. The animals in the control group received vehicle only (i.p.) on day 10. The injured group animals received bleomycin (3 U/kg) via the intratracheal route at the start of the experiment (day 0). The animals in the α-GalCer treated groups received bleomycin (3 U/kg) on day 0, and i.p. injection of α-GalCer (2 μg/mouse) on day 10. […] RNA extraction and Quantitative reverse transcriptase PCR.RNA was extracted with RNA extraction reagent using the commercial total RNA micro-prep kit according to the product instructions. Total RNA was quantified by nanovolume photospectrometer and fluorometer. […] Quantification was performed using with the delta-delta CT method, using Cyclophilin A (Ppia) as a housekeeping gene.

[3] = system: lung parenchymal iNKT cells; assay: Bleomycin-induced lung injury model, flow cytometry of lung iNKT cells; assay type: in vivo, mouse; details: bleomycin-injured mice, GalCer day 10, harvest day 14; FIG. 4C
Method: MATERIALS AND METHODS. Mouse husbandry. All procedures involving mice were performed according to the IACUC standards following ethics approval by the animal committee at the University of California, San Francisco. Male C57BL6/J on chow or HFD fed mice. HFD mice were fed a high-fat diet (60% kcal from fat) from 6 weeks until 22 weeks of age. All experiments on HFD mice were performed at 22-24 weeks total age (16-18 weeks on HFD). Age-matched male C57BL6/J mice on standard rodent chow diet were used as controls. For the lung injury model, 10-week-old male C57BL/6J mice were used. The animals were divided into three groups: the control group, the injured group, and the α-GalCer treated group. The animals in the control group received vehicle only (i.p.) on day 10. The injured group animals received bleomycin (3 U/kg) via the intratracheal route at the start of the experiment (day 0). The animals in the α-GalCer treated groups received bleomycin (3 U/kg) on day 0, and i.p. injection of α-GalCer (2 μg/mouse) on day 10. […]
Flow cytometry of iNKT cells. eWAT SVF cells were stained with PBS57 (α-GalCer-analog) loaded onto CD1d-PE tetramers prepared by the NIH Tetramer Core and anti-CD3-APC. […] For lung, 1×10^6 cells from each sample were used to quantify iNKT cells. […]

[4] = Lynch 2012, Schipper 2012, Ji 2012; cited from earlier work

**Q.** What does the source list for `CCCCCCCCCCCCCCCCCCCCCCCCCC(=O)N[C@@H](CO[C@H]1O[C@H](CO)[C@H](O)[C@H](O)[C@H]1O)[C@H](O)[C@H](O)CCCCCCCCCCCCCC` [GalCer, alpha-Galactosylceramide]?
**A.** glucose tolerance (GTT) ([1]; 2 g/kg glucose i.p. after 14 h fast, vs vehicle): improved glucose tolerance; insulin sensitivity (HOMA-IR) ([1]; vs vehicle): improved insulin sensitivity; fasting glucose ([1]; vs vehicle-treated HFD-fed mice): significantly lower fasting glucose; mRNA levels of senescence (Cdkn2a^Ink4a) and SASP (Ccl2, Serpine1) markers in CD45^− lung cells [2]: reduced mRNA levels of these marker genes; lung parenchymal iNKT cells (proportion of T cells) [3]: induced expansion of lung parenchymal iNKT cells; metabolic phenotypes in the HFD mouse model (literature) [4]: reverse adverse metabolic phenotypes
